Consider 19 molecules from ChEMBL document CHEMBL1134046, “Phthalazine PDE4 inhibitors. Part 2: the synthesis and biological evaluation of 6-methoxy-1,4-disubstituted derivatives” (Bioorg Med Chem Lett, 2001).

pIC50, pKi: −log10 of the molar value.

The target in data set [1] is T1, Phosphodiesterase 4 (Homo sapiens, UniProt P27815+Q08499+Q07343+Q08493). The data set can be described thus: Percent inhibition of human neutrophil phosphodiesterase 4 at 10e-7 M. The data set is classed as protein assay.
Data set [2] concerns the target T1, Phosphodiesterase 4. The data set can be described thus: Percent inhibition of human Phosphodiesterase 4 at 10e-7 M. The data set is classed as protein assay.
A further data set is filed under the species Homo sapiens. The data set can be described thus: Inhibition of TNF-alpha synthesis in human monocytes. Type of data set: functional, organism-based.
The target of data set [3] is T1, Phosphodiesterase 4.
Description: Inhibition of human Phosphodiesterase 4
Data set [4] addresses T1, Phosphodiesterase 4. The data set can be described thus: Inhibition of rolipram binding to PDE4. The data set is classed as protein assay.
Data set [5] concerns the target T1, Phosphodiesterase 4. The data set can be described thus: Inhibition of human neutrophil Phosphodiesterase 4. Type of data set: protein assay.
The target of data set [6] is T1, Phosphodiesterase 4. The data set can be described thus: Inhibition of rolipram binding to PDE4 at 10e-5 M. Type of data set: protein assay.
For data set [7], the target named is T1, Phosphodiesterase 4. The data set can be described thus: Inhibition of human neutrophil phosphodiesterase 4. The data set is classed as protein assay.
A short description of data set [8]: Oral bioavailability in rat. The data set is classed as ADME, organism-based. Conditions: in vivo.
The species entered for data set [9] is Rattus norvegicus. The data set can be described thus: In vitro and metabolic stability was determined. Type of data set: ADME.
Data set [10] relates to Cavia porcellus. The data set can be described thus: Percent inhibition of eosinophil infiltration in the guinea pig at 30 uM/kg ip. Type of data set: functional.
Data set [11] is filed under the species Rattus norvegicus. The data set can be described thus: Increased acid secretion in the isolated whole rat stomach. Type of data set: functional.
Data set [12] relates to Canis familiaris. The data set can be described thus: Emetic effect in dog after intravenous administration. The data set is classed as functional. Conditions: Canis lupus familiaris.
Data set [13] deals with Canis familiaris. The data set can be described thus: Emetic effect in dog on intravenous administration. The data set is classed as functional. To be noted: Canis lupus familiaris.
Data set [14] concerns Cavia porcellus. The data set can be described thus: Percent inhibition of eosinophil infiltration in the guinea pig at 30 uM/kg (ip). The data set is classed as functional.
Data set [15] is filed under the species Rattus norvegicus. The data set can be described thus: In vitro metabolic stability in rat hepatocytes. The data set is classed as ADME, Hepatocyte.
Data set [16] concerns the target T1, Phosphodiesterase 4. The data set can be described thus: Inhibition of rolipram binding to PDE4 at 10e-6 M. The data set is classed as protein assay.

Regarding `COc1ccc2c(Cc3c(Cl)cncc3Cl)nnc(-n3ccnc3)c2c1`, at Phosphodiesterase 4 [1], the Inhibition (usually the change of the read-out against control, counted positive when it falls) was 17%.
`COc1ccc2c(Cc3c(Cl)cncc3Cl)nnc(N3CCN(C)CC3)c2c1` yielded an Inhibition at Phosphodiesterase 4 [2] of 16%.
Turning to `COc1ccc2c(Cc3c(Cl)cncc3Cl)nnc(-c3nccs3)c2c1`, the pIC50 – broadly, the negative decadic logarithm of the IC50, by convention in mol/L – in the data set listed under Homo sapiens was 8.10. The IC50 (in general, the concentration that inhibits the measured activity by half) against Phosphodiesterase 4 [3] amounted to 14 nM. In addition, the Ki – broadly, the dissociation constant of the complex between target and ligand, obtained from inhibition or displacement – on Phosphodiesterase 4 [4] worked out at 34 nM.
Take `COc1ccc2c(Cc3c(Cl)cncc3Cl)nnc(N(C)C)c2c1`: the Inhibition on Phosphodiesterase 4 [2] amounted to 39%.
`COc1ccc2c(Cc3c(Cl)cncc3Cl)nnc(N3CCOCC3)c2c1` showed a negative logarithm of the IC50 (pIC50) in the data set listed under Homo sapiens of 7.21. This molecule also showed a Ki on Phosphodiesterase 4 [4] of 452 nM. For the same molecule, on Phosphodiesterase 4 [5], the IC50 stood at 132 nM.
For `COc1ccc2c(Cc3c(Cl)cncc3Cl)nnc(N3CCCC3)c2c1`, the pIC50 in the data set listed under Homo sapiens was 8.05. Further, the IC50 against Phosphodiesterase 4 [3] was 38 nM. The molecule further had a Ki on Phosphodiesterase 4 [4] of 89 nM.
Taken in the same sequence, the figures for `COc1ccc2c(Cc3c(Cl)c[n+]([O-])cc3Cl)nnc(-c3nccs3)c2c1` were 8.52, 4 nM and 17 nM.
`C#Cc1nnc(Cc2c(Cl)cncc2Cl)c2ccc(OC)cc12`: the pIC50 in the data set filed under Homo sapiens is 7.06. The molecule further yielded a concentration for half-maximal inhibition (IC50) against Phosphodiesterase 4 [3] of 93 nM. At Phosphodiesterase 4 [4], the Ki was 204 nM.
On Phosphodiesterase 4 [2], `CCc1nnc(Cc2c(Cl)cncc2Cl)c2ccc(OC)cc12` displayed an Inhibition of 23%.
Still for that read-out and setting: for `COc1ccc2c(Cc3c(Cl)cncc3Cl)nnc(CCCCc3ccccc3)c2c1` the value was 19%.
As to `COc1ccc2c(Cc3c(Cl)cncc3Cl)nncc2c1`, at Phosphodiesterase 4 [6], the Inhibition is recorded as 42%.
Consider `COc1ccc2c(Cc3c(Cl)cncc3Cl)nnc(N3CCCC3=O)c2c1`, for which the Inhibition on Phosphodiesterase 4 [1] is listed as 6%.
`COc1ccc2c(Cc3c(Cl)cncc3Cl)nnc(Oc3ccccc3)c2c1` showed a pIC50 in the data set filed under Homo sapiens of 6.78. Further, at Phosphodiesterase 4 [7], the IC50 came out at 132 nM. The Ki on Phosphodiesterase 4 [4] amounted to 436 nM.
Turning to `COc1ccc2c(Cc3c(Cl)cncc3Cl)nnc(-c3ccccc3)c2c1`, the bioavailability – broadly, dose-corrected exposure relative to a reference, in per cent – in [8] came to 27%. In the data set filed under Rattus norvegicus [9], the “Met. stab. Cl. int” value is recorded as 5.8 ul min-1 (10e6*cells)-1. Moreover, the Inhibition in the data set with Cavia porcellus [10] is given as 34%. Also, the negative logarithm of the IC50 (pIC50) in the data set listed under Rattus norvegicus [11] is 5.40; in the data set listed under Homo sapiens it was 7.34. The same molecule returned an IC50 against Phosphodiesterase 4 [3] of 37 nM. Further, the Ki on Phosphodiesterase 4 [4] is 271 nM. The ED50 (in general, the dose at which the effect has come halfway, by size or by number of responders) in the data set with Canis familiaris [12] was above 30 µmol/kg.
For `COc1ccc2c(Cc3c(Cl)cncc3Cl)nncc2c1OC1CCCC1`, the pIC50 in the data set listed under Homo sapiens was 6.65.
In data set [8], `COc1ccc([C@]2(C#N)CC[C@@H](C(=O)O)CC2)cc1OC1CCCC1` [CILOMILAST] came in with a bioavailability of 35%. The molecule also returned an ED50 with Canis familiaris [13] of 10 µmol/kg. In addition, the pIC50 was 6.00 in the data set filed under Rattus norvegicus [11] and 6.80 in the data set listed under Homo sapiens. The molecule also returned an Inhibition in the data set with Cavia porcellus [14] of 17%. In addition, the “Met. stab. Cl. int” value in the data set listed under Rattus norvegicus [15] is listed as 9.2 ul min-1 (10e6*cells)-1.
Turning to `COc1ccc2c(Cc3c(Cl)cncc3Cl)nnc(C#Cc3ccccc3)c2c1`, in the data set listed under Homo sapiens, the pIC50 was 6.56. In addition, the Inhibition at Phosphodiesterase 4 [16] worked out at 21%. At Phosphodiesterase 4 [3], the IC50 came out at 48 nM.
`CCCNc1nnc(Cc2c(Cl)cncc2Cl)c2ccc(OC)cc12` came in with an Inhibition on Phosphodiesterase 4 [2] of 19%.
With `COc1ccc2c(Cc3c(Cl)cncc3Cl)nnc(-n3cncn3)c2c1`, in data set [8], the bioavailability stood at 27%. In addition, the pIC50 is below 4.52 in the data set listed under Rattus norvegicus [11], 7.14 in the data set listed under Homo sapiens and 7.14 at Phosphodiesterase 4 [7]. Moreover, the Inhibition was 33% in the data set listed under Rattus norvegicus [11] and 37% with Cavia porcellus [14]. In addition, the pKi (in general, the Ki on a negative log10 scale, so that one unit is a factor of ten) at Phosphodiesterase 4 [4] was 6.62. In addition, the “Met. stab. Cl. int” value in the data set filed under Rattus norvegicus [15] is 1.5 ul min-1 (10e6*cells)-1. This molecule also returned a 50% effective dose (ED50) in the data set on Canis familiaris [12] above 30 µmol/kg.
